One test concerns CHO-Kl cells. The format is cell-based, Chinese hamster.
Another test has as its system enterotoxin LT-II. Also noted: species or system E. coli. The note with it: in vivo, po.
The target in a further test is cholera toxin CT (Vibrio cholerae, UniProt P01556). The format is cell-based.
Test [1] addresses enterotoxin CFA/II(LT-II) (Escherichia coli, UniProt P0CK94). The format is cell-based, E. coli.
In another test the target is enterotoxin CFA/I(LT-1) (Escherichia coli, UniProt D0Z6T1). The class given is cell-based, E. coli.
Chain of enterotoxin CFA/I(LT-1) (D0Z6T1 whole entry, looked up): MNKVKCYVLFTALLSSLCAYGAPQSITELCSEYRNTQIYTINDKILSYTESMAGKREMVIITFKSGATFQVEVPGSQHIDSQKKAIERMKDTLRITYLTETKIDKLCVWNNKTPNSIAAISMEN
The target in another test is cholera toxin B-subunits (Vibrio cholerae, UniProt P01556). The format is binding.
In a further test the test system is enterotoxin LT-I. The arrangement: species or system E. coli. The note with it: in vivo, po.
In the next test the test system is cholera toxin. The class given is in vivo, Vibrio cholerae. The following applies: Balb/c mice, CT 0.25 mg oral on day 8.

“And” between values parts separate entries of the source, which are not always exact repeats. Identical values can stand only once. Like-named read-outs stand apart in the source and are kept apart here.

Chain of cholera toxin CT (P01556 whole entry, looked up): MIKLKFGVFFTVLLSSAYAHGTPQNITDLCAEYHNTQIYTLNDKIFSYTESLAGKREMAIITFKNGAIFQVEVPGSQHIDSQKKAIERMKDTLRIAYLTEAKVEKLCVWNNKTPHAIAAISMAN
Chain of enterotoxin CFA/II(LT-II) (P0CK94 whole entry, looked up): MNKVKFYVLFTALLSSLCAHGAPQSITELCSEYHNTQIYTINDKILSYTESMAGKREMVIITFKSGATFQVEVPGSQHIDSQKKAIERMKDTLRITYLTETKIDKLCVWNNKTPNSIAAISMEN

In the case of cholera toxin [CT], the “CHO-Kl cells morphologically altered” value with CHO-Kl cells was “at least 70%”.

With ganglioside GD3, in the test with enterotoxin LT-II, the Rate of diarrhea is 40% and 20%.

Turning to kappa-casein, in the test with cholera toxin CT, the “neutralization of the toxicity of CT against CHO-Kl cells (morphological alteration)” value is listed as “neutralized the toxicity”. Further, the “neutralization of the toxicity of LT-II against CHO-Kl cells (morphological alteration)” value in test [1] is given as “neutralized the toxicity”. In addition, the “neutralization of the toxicity of LT-I against CHO-Kl cells (morphological alteration)” value in the test with enterotoxin CFA/I(LT-1) is reported as “neutralized the toxicity”. Also, the “interference with the binding of the cholera toxin B-subunits to GM1” value (“interference with the binding” for short) with cholera toxin B-subunits was “interfered with the binding”.

kappa-casein glycomacropeptides [GMP]: the “neutralization of the toxicity of CT against CHO-Kl cells (morphological alteration)” value at cholera toxin CT is on record as “neutralized the toxicity”. The “neutralization of the toxicity of LT-II against CHO-Kl cells (morphological alteration)” value in test [1] was “neutralized the toxicity”. Besides, the “neutralization of the toxicity of LT-I against CHO-Kl cells (morphological alteration)” value on enterotoxin CFA/I(LT-1) is given as “neutralized the toxicity”. Besides, the “interference with the binding” value on cholera toxin B-subunits is listed as “interfered with the binding”.

With sialyllactose [SL], on cholera toxin CT (samples 1 or 5 micrograms/chamber, CT 10 micrograms/ml), the “neutralization of the toxicity of CT against CHO-Kl cells (morphological alteration)” value was “neutralized the toxicity”. Besides, the Rate of diarrhea with enterotoxin LT-I was 40% and 20%; with cholera toxin (oral 0.2 mg/day for 7 days) it was 20%; in the test on cholera toxin (oral 0.5 mg/day for 7 days) it was 20%; in the test on cholera toxin (oral 1.0 mg/day for 7 days), 0%. In addition, the “neutralization of the toxicity of LT-II against CHO-Kl cells (morphological alteration)” value in test [1] (samples 1 or 5 micrograms/chamber, LT-II culture supernatant) is recorded as “neutralized the toxicity”. At enterotoxin CFA/I(LT-1) (samples 1 or 5 micrograms/chamber, LT-I culture supernatant), the “neutralization of the toxicity of LT-I against CHO-Kl cells (morphological alteration)” value is given as “neutralized the toxicity”. Besides, the “interference with the binding” value on cholera toxin B-subunits (GM1-adsorbed plate, peroxidase-labeled CT-B, absorbance at 405 nm) is recorded as “interfered with the binding”.

(Values after patent US5260280A (priority 1989, dated 1993).)
